Reference: US20230270773A1, “METHODS OF TREATING CANCER WITH A STING AGONIST” (Immunesensor Therapeutics, Inc., priority 2019, published 2023)
Entries after “also recorded” stand apart in the source; their conditions may differ.

What was measured:
AG104 (fibrosarcoma) = experiment: AG104 syngeneic tumor model, intratumoral; format: in vivo, mouse
Description: Note that several of these tumors such as B16F10, 4T1, LL2 and AG104 are known to be refractory to antibodies against PD-1, PD-L1, or CTLA-4. In the B16F10 tumor model, twice weekly injection of Compound A for two weeks was efficacious in a dose-dependent manner in the range from 0.1 µg to 10 µg (0.005-0.5 mg/kg).

B16F10 melanoma = B16F10 melanoma syngeneic tumor model; format: in vivo, C57BL/6 mice
Description: To assess therapeutic activity of Compound A, C57BL/6 immune competent mice received subcutaneous implants of B16F10 melanoma cells on the right flank. Five days later, when tumor volumes were between 50 and 100 mm^3, the mice were intratumorally dosed with 0.1, 0.3, or 1.0 µg (equivalent to 0.005, 0.015, or 0.05 mg/kg) of Compound A alone, or in combination with 200 µg of PD-L1 antibody (clone 10F.9G2 available from Bio-X-Cell (catalog # BE0101)). Dosing was repeated every 3-4 days for 4 total doses. […] Once again, the effect was enhanced when Compound A was administered together with the PD-L1 antibody.

AG104A fibrosarcoma = experiment: Abscopal effect, AG104A fibrosarcoma bilateral tumor model; format: in vivo, C3B6F1 mice; conditions: intratumoral into primary tumor, PD-L1 antibody 200 µg
Description: C3B6F1 mice (N=8) bearing AG104A tumors on both left and right flanks were treated intratumorally on the right flank (primary) with Compound A on Days 5, 8, 11, and 15 after tumor inoculation. Tumors on the left flank (distant) were not treated.
(§1) An abscopal effect is an immune-mediated phenomenon wherein direct treatment of a primary tumor can lead to a response in a distant tumor. The potential abscopal effect of Compound A was evaluated in B16 melanoma and AG104A fibrosarcoma tumor models evaluating mice bearing tumors on both right flank (primary tumor) and left flank (secondary tumor). In both models, Compound A was administered intratumorally into the primary tumor on days 5, 8, 11 and 15 after tumor inoculation. The secondary tumor was not treated.

[1] = Pharmacokinetics after intratumoral administration in B16F10 tumor bearing mice; format: in vivo; conditions: female B16F10 tumor bearing mice
Description: (§2) The nonclinical pharmacokinetics (PK) of subcutaneously, intravenously, or intratumorally administered Compound A was investigated in mice at the doses of 0.1 and/or 0.5 mg/kg.

AG104A (fibrosarcoma) = experiment: AG104A PD-L1 antibody-resistant tumor model; format: in vivo, B6C3F1 mice; conditions: Compound A 0.5 mg/kg SC, days 4, 7, 10, 14, 17, 21; PD-L1 antibody 200 µg
Description: Compound A was evaluated alone and in combination with 200 µg of the PD-L1 antibody used in Example 6 in immune checkpoint blockade-resistant tumors. In these studies, mice were implanted with LL2 (lung cancer), 4T1 (breast cancer), AG104Ld (fibrosarcoma), and AG104A (fibrosarcoma) tumors. Following implantation, the animals were dosed intratumorally or subcutaneously with 0.5 mg/kg of Compound A alone or in combination with the PD-L1 antibody, as shown in the table below: […]

B16 melanoma = experiment: Abscopal effect, B16 melanoma bilateral tumor model; format: in vivo, mice; conditions: intratumoral into primary tumor, 0.15 and 0.5 mg/kg
Description: as §1

[2] = Pharmacokinetics in mice, subcutaneous vs intravenous; conditions: mouse, in vivo
Description: as §2

MC38 (colon) = experiment: MC38 syngeneic tumor model; format: in vivo, mouse
IFNβ and other cytokines = experiment: Cytokine production induced in mice; format: in vivo, C57BL/6 mice
Description: (§3) The pharmacokinetic/pharmacodynamic properties of Compound A were evaluated in C57BL/6 mice following dosing by subcutaneous, intramuscular, or intravenous routes of administration. Blood was collected post-dosing for the measurement of Compound A and cytokine levels in plasma.

[3] = system: IFNα, IL-6, TNFα and other cytokines; experiment: Plasma cytokine levels in cynomolgus monkeys; format: in vivo
Description: Male and female cynomolgus monkeys were assigned to groups and doses of Compound A were administered. Animals were dosed via subcutaneous injection at a volume of 2 mL/kg. The vehicle control article/diluent was phosphate-buffered saline (PBS).
Escalation of Compound A dose levels was tolerated up to 3.0 mg/kg/dose, with findings limited to increased body temperature and elevated IFNα, IL-6, and TNFα cytokine levels. IFNα, TNFα, and IL-6 levels were measured at 3, 6, and 12 hours post-dosing. Dose related but variable changes were observed. […] TNFα levels increased at 3 hours in the 1 mg/kg group. […] The cytokine responses are consistent with the predicted STING pathway activation.

[4] = Metabolic stability in in vitro systems; format: in vitro ADME, and monkey; conditions: human, rat, mouse, dog, monkey
[5] = Compound A levels in plasma after dosing of mice; format: in vivo, C57BL/6 mice
Description: as §3

[6] = system: B16 melanoma lung metastasis; experiment: B16 melanoma lung metastasis model; format: in vivo, mouse; conditions: intratumoral days 5, 8, 11; PD-L1 antibody 200 µg
Description: A B16 melanoma lung metastasis model was used to evaluate the effect of Compound A on tumor metastasis. Compound A was administered intratumorally on days 5, 8, and 11 after tumor inoculation alone or in combination with a PD-L1 antibody (200 µg of the antibody used in Example 6).

For `Nc1nc2c(ncn2[C@@H]2O[C@@H]3COP(=O)(O)OC4C(O)[C@H](n5cnc6c(N)ncnc65)O[C@@H]4COP(=O)(O)OC2C3OCC(F)(F)F)c(=O)[nH]1` (stereo partly shown) [Compound A], the tumor growth inhibition (AG104 (fibrosarcoma)) was “highly effective in inhibiting tumor growth”, the “efficacious dose range (dose-dependent)” value (B16F10 melanoma) was 0.1 to 10 µg and the “tumor growth and survival” value (B16F10 melanoma; 0.005 mg/kg) was “sufficient to inhibit tumor growth and prolong survival”. For the same compound, the tumor volume (B16F10 melanoma; Compound A 0.1, 0.3 or 1.0 µg intratumoral, PD-L1 antibody 200 µg, FIG. 3 Panels A-C) was “significantly reduced tumor volume at all dose levels”, the survival time (B16F10 melanoma; Compound A 0.1, 0.3 or 1.0 µg intratumoral, PD-L1 antibody 200 µg, FIG. 3 Panels E-G) was “significantly increased the survival time” and the tumor growth inhibition (B16F10 melanoma; intratumoral) was “highly effective in inhibiting tumor growth”. For the same compound, the “tumor growth and survival” value (B16F10 melanoma; intratumoral, compared to controls) was “dose-dependent suppression of tumor growth and prolonged survival”, the “lowest dose with decreased tumor growth and prolonged survival” value (B16F10 melanoma; intratumoral, every 3-4 days, 4 doses (0.1 µg/mice)) was 5 µg/kg and the anti-tumor efficacy (B16F10 melanoma; subcutaneous) was “also effective”. For the same compound, the “tumor growth/volume, primary and distant tumors” value (AG104A fibrosarcoma; 0.15 and 0.5 mg/kg, days 5, 8, 11, 15) was “tumor growth was suppressed in both primary and distant tumors; also recorded: significantly decreased”, the survival (AG104A fibrosarcoma) was “survival was significantly prolonged; also recorded: increases the survival” and the Frel in plasma ([1]; intratumoral 0.1 mg/kg) was 105%. For the same compound, the Frel in plasma ([1]; intratumoral 0.5 mg/kg) was 112%, the “efficacy (tumor growth and survival)” value (AG104A (fibrosarcoma)) was “suppressed tumor growth and prolonged mouth survival” and the survival (B16 melanoma) was “survival was significantly prolonged”. The “tumor growth/volume, primary and distant tumors” value (B16 melanoma; days 5, 8, 11, 15) was “tumor growth was suppressed in both primary and distant tumors; also recorded: significantly decreased”, the bioavailability ([2]; sc, subcutaneous 0.5 mg/kg, male mice, subcutaneous AUC0-t vs intravenous AUC0-t, read-out: bioavailability (F)) was 121% and the clearance ([2]; mice, systemic compartment, read-out: clearance (CL) (converted)) was 16.8 mL/min/kg. The half-life ([2]; mice, read-out: t½) was roughly 15 min, the Vd ([2]; mice, read-out: volume of distribution (Vss)) was 0.255 L/kg and the tumor growth inhibition (MC38 (colon); intratumoral) was “highly effective in inhibiting tumor growth”. For the same compound, the anti-tumor efficacy (MC38 (colon); subcutaneous) was “also effective”, the cytokine induction (IFNβ and other cytokines; 0.50 mg/kg) was “very low levels of cytokines” and the IFNβ in blood (IFNβ and other cytokines; 3 hours post dosing) was “High levels of IFNβ”. For the same compound, the “IFNβ levels in blood” value (IFNβ and other cytokines; 12 hours post dosing) was “near the BLOQ”, the cytokine induction (IFNβ and other cytokines; dose levels that showed significant antitumor efficacy) was “only induced low levels of cytokine” and the “time at which cytokine production was seen” value (IFNβ and other cytokines; following administration) was 3 to 6 h. For the same compound, the “time to decrease of cytokines to BLOQ” value (IFNβ and other cytokines; following administration) was no more than 12 h, the “induction of IFNβ and other cytokines” value (IFNβ and other cytokines; subcutaneous 0, 0.15, 0.50, 1.50, 5, 15, 50 mg/kg, 3 and 6 hours post injection) was “dose-dependent induction of IFNβ” and the IFNα levels ([3]; 1 mg/kg and 3 mg/kg groups, 3 and 6 hours post dosing) was “Moderate levels of IFNα”. The TNFα levels ([3]; 1 mg/kg group, 3 hours) was “increased”, the TNFα levels ([3]; 3 mg/kg and 10 mg/kg groups) was “Lower levels of TNFα” and the IL-6 increases ([3]; 3 mg/kg and 10 mg/kg, 12 hours postdose) was “persisted at 12 hours postdose”. For the same compound, the “cytokine levels, time course” value ([3]; NHP, non-GLP studies of Example 2) was “increases in the first 3-6 hours with return to baseline in most cases by 6-24 hours”, the “plasma IL-6 levels” value ([3]; all groups, 3 and 6 hours post dosing) was “Increases in plasma IL-6 levels” and the half-life [4] was greater than 120 min. The concentration at 15 minutes ([5]; C57BL/6, mouse, plasma, 15 minutes after injection, subcutaneous, intramuscular or intravenous, read-out: Compound A level in plasma) was 5 to 15 µM, the “Compound A in circulation” value ([5]; at 15 minutes, subcutaneous or intratumoral) was “detectable” and the “Levels of Compound A” value ([5]; by 1 hour, subcutaneous, intratumoral or intravenous) was “below the limit of quantitation (BLOQ)”. The “Compound A level in plasma” value ([5]; one hour after administration) was “below the limit of detection”, the “Cmax, comparison between administration routes” value ([5]; subcutaneous, intramuscular, intravenous) was “not significantly different between administration routes” and the “number of metastases in the lung” value [6] was “dramatically reduced”. The primary tumor volume [6] was “significant reduction in tumor volume”.
